According to patent publication US9944589B2, “Cycloproplyamine derivatives useful as inhibitors of histone demethylases KDM1A” (Istituto Europeo de Oncologia S.r.L., priority 2012, dated 2018):
Counter-ions that a name gives are not always drawn.

Assays:
[1] = test system: Acute promyelocytic leukemia NB4 cells; test: Cell growth (CellTiter-Fluor cell viability assay); format: cell-based; details: Homo sapiens, NB-4, 48 h, range classes, read-out: IC50 [μM], cell growth inhibitory assay
Source text: CellTiter-Flor® (Promega) is as a nonlytic, single-reagent-addition fluorescence assay that measures the relative number of living cells in a culture population after experimental manipulation. The CellTiter-Fluor™ Cell Viability Assay measures the conserved and constitutive protease activity within live cells and therefore acts as a marker for cell viability.
Acute promyelocytic leukemia NB4 cells, (obtained from the Deutsche Sammlung von Mikroorganismen and Zellkulturen) in exponential growth, were incubated for 48 h with different concentrations of the inhibitors. After 48 h a volume of CellTiter-Fluor® Reagent equal to one fifth of volume of cell culture medium was added. The content was mixed and incubates for at least 90 min at 37° C. degree to obtain a stable signal. The fluorescence was recorded using an excitation wavelength of 360 nm and an emission at 535 nm. The IC50 was calculated using GraphPad Software.

[2] = target: T1, human recombinant KDM1A (LSD1)/CoRest (Homo sapiens, UniProt O60341); test: Assay of enzyme inhibition of KDM1A (LSD1), Amplex UltraRed/peroxidase coupled; format: biochemical; details: 15 min preincubation, 4.5 μM mono-methylated H3-K4 peptide, range classes, read-out: IC50 [μM], KDM1A inhibition assay
T1 construct: made in house; host or cells: E. coli
Description: The experiments were performed using a mono-methylated H3-K4 peptide containing 21 amino acids (custom synthesis done by Thermo Scientific) as substrate and in a 50 mM TRIS, pH 8, 0.05 mg/ml BSA buffer.
The demethylase activity was estimated under aerobic conditions and at RT by measuring the release of H2O2 produced during the catalytic process by the Amplex® UltraRed detection system coupled with peroxidase assay. Briefly, a fixed amount of KDM1A/CoRest complex was incubated at RT for 15 minutes in the absence and/or the presence of various concentrations of inhibitor (e.g. from 0 to 100 μM, depending on the inhibitor strength) and of Amplex® UltraRed detection system coupled with peroxidase assay. The inhibitors were tested twice in duplicates at each concentration. […] The conversion of the Amplex® Ultra Red reagent to resorufin was monitored in continuous by fluorescence (excitation at 540 nm, emission at 590 nm) using a microplate reader (Infinite 200, Tecan). Arbitrary units were used to measure the level of H2O2 produced in the absence and/or in the presence of inhibition. The maximum demethylase activity of KDM1A/CoRest was obtained in the absence of inhibitors and corrected for background fluorescence in the absence of KDM1A/CoRest. The IC50 was calculated using GraphPad Software.

Structure (SMILES)	IC50 [1]	IC50 [2]
N[C@]1(Cc2ccccc2)C[C@H]1c1ccccc1 (relative stereo) [Example A-8, trans-1-benzyl-2-phenyl-cyclopropanamine hydrochloride]	50 to 100 µM	–
N[C@]1(CCc2ccccc2)C[C@H]1c1ccccc1 (relative stereo) [Example A-11, trans-1-phenethyl-2-phenyl-cyclopropanamine hydrochloride]	10 to 50 µM	–
CC[C@@]1(N)C[C@H]1c1ccc(Br)cc1 (relative stereo) [Example A-12, trans-2-(4-bromophenyl)-1-ethyl-cyclopropanamine hydrochloride]	10 to 50 µM	0.1 to 1 µM
N[C@]1(Cc2ccccc2)C[C@H]1c1ccc(Br)cc1 (relative stereo) [Example A-13, trans-1-benzyl-2-(4-bromophenyl)cyclopropanamine hydrochloride]	10 to 50 µM	0.1 to 1 µM
CC[C@@]1(N)C[C@H]1c1ccc2ncccc2c1 (relative stereo) [Example A-14, trans-1-ethyl-2-(6-quinolyl)cyclopropanamine dihydrochloride]	10 to 50 µM	–
N[C@]1(Cc2ccc3ccccc3c2)C[C@H]1c1ccccc1 (relative stereo) [Example A-15, trans-1-(2-naphthylmethyl)-2-phenyl-cyclopropanamine hydrochloride]	≤ 10 µM	–
CC[C@@]1(N)C[C@H]1c1ccc(OC(F)(F)F)cc1 (relative stereo) [Example A-24, 1-ethyl-(trans)-2-[4-(trifluoromethoxy)phenyl] cyclopropanamine hydrochloride]	50 to 100 µM	1 to 5 µM
N[C@]1(Cc2ccc3ccccc3c2)C[C@H]1c1ccc(Br)cc1 (relative stereo) [Example A-29, trans-2-(4-bromophenyl)-1-(2-naphthylmethyl)cyclopropanamine hydrochloride]	10 to 50 µM	0.1 to 1 µM
CC[C@@]1(N)C[C@H]1c1ccc(NC(=O)c2ccc3ccccc3c2)cc1 (relative stereo) [Example A-30, trans-N-[4-[2-amino-2-ethyl-cyclopropyl]phenyl]naphthalene-2-carboxamide hydrochloride]	10 to 50 µM	–
CC[C@]1(N)C[C@@H]1c1ccccc1NC(=O)c1cccc(NC(=O)OCc2ccccc2)c1 (relative stereo) [Example A-32, benzyl N-[3-[[2-[(trans)-2-amino-2-ethyl-cyclopropyl]phenyl]carbamoyl]phenyl]carbamate hydrochloride]	10 to 50 µM	–
CC[C@@]1(N)C[C@H]1c1cccc(NC(=O)c2cccc(NC(=O)OCc3ccccc3)c2)c1 (relative stereo) [Example A-33, benzyl N-[3-[[3-[(trans)-2-amino-2-ethyl-cyclopropyl]phenyl]carbamoyl]phenyl]carbamate hydrochloride]	10 to 50 µM	0.1 to 1 µM
CC[C@@]1(N)C[C@H]1c1ccc(NC(=O)c2cccc(Cl)c2)cc1 (relative stereo) [Example A-34, N-[4-[(trans-2-amino-2-ethyl-cyclopropyl]phenyl]-3-chloro-benzamide hydrochloride]	10 to 50 µM	< 0.1 µM
CC[C@@]1(N)C[C@H]1c1ccc(NC(=O)c2cccc(NC(=O)OCc3ccccc3)c2)cc1 (relative stereo) [Example A-37, benzyl N-[3-[[4-[(trans)-2-amino-2-ethyl-cyclopropyl]phenyl]carbamoyl]phenyl]carbamate hydrochloride]	10 to 50 µM	< 0.1 µM
CC[C@@]1(N)C[C@H]1c1ccc(NC(=O)c2ccc(NC(=O)OCc3ccccc3)cc2)cc1 (relative stereo) [Example A-38, benzyl N-[4-[[4-[(trans)-2-amino-2-ethyl-cyclopropyl]phenyl]carbamoyl]phenyl]carbamate hydrochloride]	≤ 10 µM	–
CC[C@@]1(N)C[C@H]1c1ccc(NC(=O)CCc2ccccc2)cc1 (relative stereo) [Example A-40, N-[4-[(trans)-2-amino-2-ethyl-cyclopropyl]phenyl]-3-phenyl-propanamide hydrochloride]	≤ 10 µM	< 0.1 µM
CC[C@@]1(N)C[C@H]1c1ccc(OCc2ccccc2)cc1 (relative stereo) [Example A-41, 2-(4-benzyloxyphenyl)- trans-1-ethyl-cyclopropanamine hydrochloride]	10 to 50 µM	0.1 to 1 µM
N[C@]1(Cc2ccccc2)C[C@H]1c1ccc(OCc2ccccc2)cc1 (relative stereo) [Example A-43, trans-1-benzyl-2-(4-benzyloxyphenyl) cyclopropanamine hydrochloride]	10 to 50 µM	0.1 to 1 µM
N[C@]1(Cc2ccc3ccccc3c2)C[C@H]1c1ccc(NC(=O)c2cccc(NC(=O)OCc3ccccc3)c2)cc1 (relative stereo) [Example A-45, benzyl N-[3-[[4-[(trans)-2-amino-2-(2-naphthylmethyl)cyclopropyl]phenyl]carbamoyl]phenyl] carbamate hydrochloride]	≤ 10 µM	–
N[C@]1(Cc2ccc3ccccc3c2)C[C@H]1c1ccc(NC(=O)Cc2ccccc2)cc1 (relative stereo) [Example A-46, N-[4-[(trans-2-amino-2-(2-naphthylmethyl)cyclopropyl]phenyl]-2-phenyl-acetamide hydrochloride]	≤ 10 µM	< 0.1 µM
CC[C@@]1(N)C[C@H]1c1ccc(NC(=O)Cc2cccc3ccccc23)cc1 (relative stereo) [Example A-68, N-[4-trans-[2-amino-2-ethyl-cyclopropyl]phenyl]-2-(1-naphthyl) acetamide hydrochloride]	10 to 50 µM	< 0.1 µM
N[C@]1(Cc2ccc3ccccc3c2)C[C@H]1c1ccc(NC(=O)c2ccc(NC(=O)OCc3ccccc3)cc2)cc1 (relative stereo) [Example A-70, benzyl N-[4-[[4-[trans-2-amino-2-(2-naphthylmethyl)cyclopropyl]phenyl]carbamoyl]phenyl]carbamate 2,2,2-trifluoroacetic acid]	≤ 10 µM	0.1 to 1 µM
CC[C@@]1(N)C[C@H]1c1ccc(NC(=O)c2cccc3ccccc23)cc1 (relative stereo) [Example A-71, N-[4-(trans-2-amino-2-ethyl-cyclopropyl)phenyl] naphthalene-1-carboxamide hydrochloride]	≤ 10 µM	< 0.1 µM
N[C@]1(Cc2ccc3ccccc3c2)C[C@H]1c1ccc(NC(=O)c2ccc3ccccc3c2)cc1 (relative stereo) [Example A-72, N-[4-[trans-2-amino-2-(2-naphthylmethyl)cyclopropyl]phenyl] naphthalene-2-carboxamide hydrochloride]	≤ 10 µM	0.1 to 1 µM
N[C@]1(Cc2ccc3ccccc3c2)C[C@H]1c1ccc(NC(=O)c2ccc(-c3ccccc3)cc2)cc1 (relative stereo) [Example A-73, N-[4-[trans-2-amino-2-(2-naphthylmethyl)cyclopropyl]phenyl]-4-phenyl-benzamide hydrochloride]	10 to 50 µM	0.1 to 1 µM
CC[C@@]1(N)C[C@H]1c1ccc(NC(=O)Cc2ccc3ccccc3c2)cc1 (relative stereo) [Example A-74, N-[4-trans-2-amino-2-ethyl-cyclopropyl] phenyl]-2-(2-naphthyl) acetamide hydrochloride]	10 to 50 µM	< 0.1 µM
N[C@]1(c2ccccc2)C[C@H]1c1ccc(NC(=O)c2ccccc2)cc1 (relative stereo) [Example A-75, N-[4-[trans-2-amino-2-phenyl-cyclopropyl]phenyl] benzamide hydrochloride]	10 to 50 µM	< 0.1 µM
N[C@]1(Cc2ccc3ccccc3c2)C[C@H]1c1ccc(NC(=O)Cc2cccc3ccccc23)cc1 (relative stereo) [Example A-76, N-[4-[trans-2-amino-2-(2-naphthylmethyl)cyclopropyl]phenyl]-2-(1-naphthyl)acetamide hydrochloride]	≤ 10 µM	0.1 to 1 µM
Nc1ccc([C@@H]2C[C@]2(N)Cc2ccc3ccccc3c2)cc1 (relative stereo) [Example A-119, 4-[trans-2-amino-2-(2-naphthylmethyl)cyclopropyl]aniline 2,2,2-trifluoroacetic acid]	≤ 10 µM	–
N[C@@]1(CO)C[C@H]1c1ccccc1 (relative stereo) [Example B-2, [1-Amino-(cis)-2-phenyl-cyclopropyl]methanol]	50 to 100 µM	–
CC[C@@]1(NCc2c(OC)ccc3ccccc23)C[C@H]1c1ccccc1 [Example C-2, (1R,2S)-1-ethyl-N-[(2-methoxy-1-naphthyl)methyl]-2-phenyl-cyclopropanamine]	50 to 100 µM	–
